Experimental data reported in PMC8588131, “Synthesis, In Silico Studies, and Evaluation of Syn and Anti Isomers of N-Substituted Indole-3-carbaldehyde Oxime Derivatives as Urease Inhibitors against Helicobacter pylori” (Molecules, 2021).

Tests used:
[1] = test system: Macrotyloma uniflorum urease; test: in vitro urease inhibitory assay (modified Berthelot reaction, indophenol blue, absorbance at 630 nm); format: biochemical, Macrotyloma uniflorum (Horse gram); details: for Maximum Percentage of Inhibition: maximum over tested range 5.00-35.00 μg/mL; for IC50: urease extracted from Macrotyloma uniflorum, thiourea as standard inhibitor, 37 °C, pH 7.2
Experimental: All synthesized oxime compounds (2, 6, 7, 8, and 9) were evaluated for the in vitro urease inhibitory activity using a colorimetric method. This method involves the formation of indophenol blue in a basic medium where the modified Berthelot reaction is used. The urease enzyme required for the assay was extracted from Macrotyloma uniflorum (Horse gram) with the activity of 0.1013 U, and thiourea was used as the standard inhibitor [34]. The amount of ammonia produced within a given period of time was quantified using a standard calibration method.
Modified Berthelot method was used for the determination of the amount of produced ammonia, and thereby for the quantification of the urease inhibitory activities of the synthesized oxime derivatives (compounds 2, 6, 7, 8, and 9) by measuring their absorbance at 630 nm. All the test compounds and thiourea were prepared by dissolving 2 mg of each compound in 20 mL of 1.25% DMF - buffer solution (pH = 7.2, Na2HPO4 = 0.067 mol dm^−3, KH2PO4 = 0.033 mol dm^−3). DMF doesn’t show any inhibitory effect on urease activity. Initially, a 96 well plate filled with 10 μL of urease enzyme (0.01 U) and 10–70 μL of the test compound was placed in the plate reader and incubated at 37 °C for 15 min. (Concentration of each sample was changed by varying the volume of test compounds from 10 to 70 μL.) Then, to each well, 10 μL of the buffer, 10 μL of EDTA (0.025 mol dm^−3), and 10 μL of urea (0.64 mol dm^−3) were added. After that, 80–20 μL of distilled water was added accordingly to adjust the total volume to 130 μL and incubated in plate reader for another 20 min at 37 °C. Then 35 μL of each coloring agents ((coloring agent A—1% (w/v) phenol, 0.005% (w/v) sodium nitroprusside and coloring agent B—0.5% (w/v) NaOH, 0.05% (v/v) NaOCl)) were introduced to each well, and the plate was incubated in plate reader for another 50 min at 37 °C for the development of indophenol blue color. At the end of the 50 min, the absorbance of each sample was measured at the absorbance wavelength of 630 nm. A control test was conducted to quantify the total hydrolysis of urea in the presence of urease (C). Negative control was carried out to quantify the spontaneous hydrolysis of urea in the absence of the urease enzyme (N). For each sample (T1–7), a negative control test (N1–7) was performed in the absence of the urease enzyme. All experiments were performed thrice. The percentage inhibition of the urease enzyme was calculated using Equation (1). (1) percentage inhibition=[[AC−AN]−[AT1−AN1]/[AC−AN]]×100 where • AC = Absorbance of the control sample (C) • AN = Absorbance of the negative control sample (N) • AT1−7 = Absorbance of the test sample (T1 to T7) • AN1−7 = Absorbance of the negative control of the test sample (N1 to N7)

Row | SMILES | melting point [°C] | Percentage inhibition (± SEM) ([1]; at 5.00 μg/mL) [%] | Percentage inhibition (± SEM) ([1]; at 15.00 μg/mL) [%] | Percentage inhibition (± SEM) ([1]; at 20.00 μg/mL) [%] | Percentage inhibition (± SEM) ([1]; at 25.00 μg/mL) [%] | Percentage inhibition (± SEM) ([1]; at 30.00 μg/mL) [%] | Maximum Percentage of Inhibition [1] [%] | IC50 [1] [µM] | Percentage inhibition (± SEM) ([1]; at 10.00 μg/mL) [%]
1 | O/N=C/c1cn(Cc2ccccc2)c2ccccc12 [Compound 9, (E)-1-(1-benzyl-1H-indol-3-yl)-N-hydroxymethanimine] | 140 to 143 | 33.06 ± 1.23 | 72.38 ± 0.77 | 77.61 ± 1.55 | 83.21 ± 0.82 | 84.89 ± 0.47 | 86.09 | 34.5 ± 0.8 | 
2 | O/N=C\c1cn(Cc2ccccc2)c2ccccc12 [Compound 8, (Z)-1-(1-benzyl-1H-indol-3-yl)-N-hydroxymethanimine] | 132 to 134 | 36.36 ± 0.79 | 58.52 ± 0.58 | 67.99 ± 1.01 | 76.49 ± 1.24 | 79.64 ± 0.88 | 83.78 | 51.6 ± 3.5 | 44.39 ± 0.70
3 | Cn1cc(/C=N/O)c2ccccc21 [Compound 7, (E)-N-hydroxy-1-(1-methyl-1H-indol-3-yl)methanimine] | 126 to 129 | 22.74 ± 0.93 | 38.14 ± 1.25 | 44.38 ± 0.35 | 48.92 ± 0.67 | 53.01 ± 0.85 | 57.17 | 153 ± 1.6 | 31.87 ± 0.59
4 | O/N=C\c1c[nH]c2ccccc12 [Compound 2, (Z)-N-hydroxy-1-(1H-indole-3-yl)methanimine] |  | 17.46 ± 0.71 | 29.28 ± 0.52 | 39.40 ± 0.65 | 57.27 ± 0.63 | 64.87 ± 0.93 | 67.81 | 141 ± 7.5 | 24.56 ± 0.53
5 | Cn1cc(/C=N\O)c2ccccc21 [Compound 6, (Z)-N-hydroxy-1-(1-methyl-1H-indol-3-yl)methanimine] | 112 to 115 | 24.57 ± 1.22 | 29.91 ± 0.90 | 40.38 ± 0.24 | 55.76 ± 0.60 | 73.07 ± 0.35 | 77.05 | 140 ± 4.5 | 28.15 ± 0.81
6 | NC(N)=S [Thiourea, thiourea, reference compound] |  | 11.24 ± 0.28 | 38.41 ± 0.63 | 61.54 ± 0.53 | 74.36 ± 0.50 | 81.49 ± 0.67 | 85.14 | 239 ± 4.8 | 22.61 ± 0.49
